Data from patent US20150368261A1, “CONJUGATES AND SMALL MOLECULES WHICH INTERACT WITH THE CD16A RECEPTOR” (BIOINTEGRATOR LIMITED LIABILITY COMPANY, priority 2013, published 2015).

Biological target: CD16a receptor (Homo sapiens, UniProt P08637)
Test: Enzyme immunoassay (ELISA) for binding of proteins and conjugates with CD16a receptor
Conditions: Table 2, interferon alfa and its conjugate (FIG. 17); read-out: Activity (Kd) towards CD16a receptor
Procedure: Determination of conjugate activity towards CD16a receptor. The experiment uses standard materials and equipment for enzyme immunoassay. Into wells of a 96-well plate CD16a was sorbed from a solution of 3.3 μg/ml in PBS in a volume of 75 μl/well. Sorption was carried out at 4° C. during 16 h. CD16a Solution was removed from the plate, wells were filled in with 2% solution of bovine serum albumin (BSA) in PBS-p (150 μl/well). Plates were incubated at 37° C. for 2 h and three times washed with PBS-p (each time by 300 μl/well). Then the wells were filled with solutions of the conjugates in PBSP, 50 μl/well in dilutions from 0.25 to 256 μg/ml. To each dilution of the conjugate three wells corresponded in the plate. In order to control non-specific sorption of samples some wells were filled with […] BSA solution. The plate was incubated 1 h at 37° C. in a shaker for ELISA (rotation speed was 180 rpm). The plate was washed five times with 300 μl/well of PBS-p and filled with a solution of a protein modified with horseradish peroxidase (by 75 μl/well in the working dilution, which is given in the description of immunoconjugate). The plate was incubated for 30 minutes, washed five times with 300 μl/well of PBS-p and filled with a solution of TMB (100 μl/well). […] The optical density in the plate wells was measured at 450 nm at room temperature. […]

Sequence of CD16a receptor (P08637 17-254): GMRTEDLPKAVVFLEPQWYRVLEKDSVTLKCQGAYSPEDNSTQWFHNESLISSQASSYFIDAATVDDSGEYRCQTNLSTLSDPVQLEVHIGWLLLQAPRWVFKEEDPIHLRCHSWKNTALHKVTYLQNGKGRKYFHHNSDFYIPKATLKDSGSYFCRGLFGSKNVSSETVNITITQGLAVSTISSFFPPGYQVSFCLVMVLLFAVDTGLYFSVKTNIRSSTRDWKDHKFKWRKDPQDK

Substance: interferon alfa
- Kd: 230 nM
